The values that follow are results of earlier work, collected in patent US11634860B2, “Articles and methods for dispensing metal ions into laundry systems” (Applied Silver, Inc., priority 2016, dated 2023).

For this series the following is noted: silver salt formed with the binder's counterion.
With `[Ag+].[Ag+].[S-2]` [Ag2S], the “Solubility Limit” value is recorded as 6.21E−16 g/100 mL.

In the case of `[Cl][Ag]` [AgCl], the “Solubility Limit” value is reported as 1.60E−04 g/100 mL.

`[Ag+].[F-]` [AgF]: the “Solubility Limit” value is on record as 100 g/100 mL.
